Results on two compounds are retold here after article PMC6160541 (Frontiers in Chemistry, 2018).

Each structure is given as a SMILES string. Read-outs that look alike come from different tables or passages of the source.

Data set [1] relates to HeLa. The data set can be described thus: MTT cytotoxicity assay, HeLa. The data set is classed as cell-based, human. The settings on record: 48 h. As for the experimental part: (§1) We evaluated the cytotoxicity of 1c-6c, 1d-7d and of the positive control 1a-5a against a panel of human cancer cells using MTT (3-(4,5-dimethylthiazol-2-yl)-2,5-diphenyltetrazolium bromide) assay. The IC50 values were calculated based on three parallel experiments.
(§2) Cisplatin and oxaliplatin were purchased from Yurui Chemical Co. Ltd. (Shanghai, China). All of the other chemicals were obtained from commercial suppliers, such as Alfa […]
(§3) IonSpec QFT mass spectrometer with ESI ionization. 3-(4,5-dimethylthiazol-2-yl) […]
(§4) Phosphate-buffered saline (PBS) contains 137 mM
(§5) NaCl, 2.7 mM KCl, 10 mM Na2HPO4 and 2 mM KH2PO4. Fetal bovine serum (FBS), 0.25% trypsin/EDTA solution, and penicillin-streptomycin solution were purchased from […]
(§6) Invitrogen (Grand Island, NY, USA). […]
(§7) HeLa (cervical carcinoma cell line), MCF-7 (breast gland adenocarcinoma), LNCaP and PC3 (prostatic cancer), HepG-2 (hepatocellular carcinoma), A549 and A549R (lung carcinoma) were used for the MTT […]
(§8) In Vitro Cellular Cytotoxicity Assays
(§9) Cells seeded in 96-well plates were incubated in a 5% CO2 atmosphere in 100 µL of complete medium at 37 ℃ for 24 h. Then, 100 µL of freshly prepared culture medium containing drugs at different concentrations was added and incubated for another 48 h.
(§10) MTT (5 mg/mL, 20 µL) was added and incubated for 3 h. Finally, the medium was removed, and DMSO (150 µL) was added. The absorbance was measured at 570 nm using a Bio-Rad 680 microplate reader. The IC50 values were calculated using GraphPad […]
(§11) Prism software. […]
(In general: Tetrazolium assays rely on reduction of a dye to a coloured formazan, in cell work by metabolically active cells.)

The subject of data set [2] is MCF-7. The data set can be described thus: MTT cytotoxicity assay, MCF-7. As to conditions: 48 h. The data set is classed as cell-based, human. As for the experimental part:
as §1, §2, §3, §4, §5, §6, §7, §8, §9, §10, §11

Data set [3] concerns LNCaP. Kind of data set: MTT cytotoxicity assay, LNCaP. The data set is classed as cell-based, human. The settings on record: 48 h. As for the experimental part:
as §1, §2, §3, §4, §5, §6, §7, §8, §9, §10, §11

Data set [4] deals with PC3. Kind of data set: MTT cytotoxicity assay, PC3. The data set is classed as cell-based, human. As to conditions: 48 h. As for the experimental part:
as §1, §2, §3, §4, §5, §6, §7, §8, §9, §10, §11

In data set [5] the test system is HepG-2. The data set can be described thus: MTT cytotoxicity assay, HepG-2. The data set is classed as cell-based, human. As to conditions: 48 h. As for the experimental part: as §1, §2, §3, §4, §5, §6, §7, §8, §9, §10, §11
The subject of data set [6] is A549. The data set can be described thus: MTT cytotoxicity assay, A549. It is filed as cell-based, human. The settings on record: 48 h. As for the experimental part:
as §1, §2, §3, §4, §5, §6, §7, §8, §9, §10, §11

Data set [7] concerns A549R. Kind of data set: MTT cytotoxicity assay, A549R (cisplatin-resistant). It is filed as cell-based, human. As to conditions: for IC50: MTT, 48 h. As for the experimental part: as §1, §2, §3, §4, §5, §6, §7, §8, §9, §10, §11
The subject of data set [8] is MDCK cells. Kind of data set: MTT cytotoxicity with EDG, phloretin, Ctd. in MDCK cells. It is filed as cell-based, canine. As to conditions: vs IC50 at 48 h. The source says: Finally, Madin-Darby canine kidney (MDCK) cells, which are widely used to establish the model of the intestinal epithelium and to evaluate the oral administration and screening of substrates and inhibitors in vitro, were used to find a prodrug with the enhanced potential for oral administration. […] (Figure 10).

Details of data set [9]: method as in printed. As to conditions: comparison values, ref not given; cited from earlier work.
Data set [10] concerns MCF-7 cells. Kind of data set: MTT cytotoxicity with GLUT1 inhibitors (EDG, phloretin) and OCT2 inhibitor (Ctd.) in MCF-7 cells. The data set is classed as cell-based, human. As for the experimental part: For cytotoxicity assays, the GLUT1 inhibitors EDG (1) and phloretin (2), the OCT2 inhibitor Ctd. (cimetidine) (3), and the mixture of EDG and Ctd.(4) were selected to undergo a similar procedure as antitumor activity in vitro. MCF-7 cells were seeded on a 96 well plate in 100 μL of RPMI and were incubated for 24 h at 37°C, and EDG-containing RPMI medium, phloretin-containing RPMI medium and Ctd.-containing RPMI medium were used to render the serial dilution of the concentrated solutions of the platinum compounds, and 100 μL/well was added (resulting in final inhibitor concentrations of 75 mM, 100 μM and 3 mM). The cytotoxicity profiles of the compounds were evaluated using MTT assay. […]
as §8, §9
MTT (5 mg/mL, 20 µL) was added and incubated for 3 h. Finally, the medium was removed, and DMSO (150 µL) was added. The absorbance was measured at 570 nm using a Bio-Rad 680 microplate reader. The IC50 values were calculated using GraphPad Prism software. Technical repetitions and independent experiments were based on three […]
For cytotoxicity assays using the GLUT1 inhibitor 4,6-O-ethylidene-α-D-glucose (EDG), phloretin and the OCT2 inhibitor Ctd., a similar procedure as described above was followed except that MCF-7 cells (3500 cells/well) were seeded on a 96 well plate in 100 µL of RPMI and incubated for 24 h at 37 °C. EDG, phloretin and Ctd. containing RPMI medium were used for serial dilution of the concentrated solutions of the platinum compounds, and 100 µL/well were added (resulting in final inhibitor concentrations of 75 mM, 100 µM and 3 mM, respectively). The cytotoxicity profiles of the compounds were evaluated using the MTT assay. […]

Data set [11] deals with 293T. Kind of data set: Viability of normal cells 293T, 48 h incubation assay. The data set is classed as cell-based. As for the experimental part: (§12) An ideal anticancer compound should be selective for cancer cells over normal healthy cells, thereby mitigating the undesired toxic side effects associated with chemotherapy.
(§13) Scheme 9. Synthetic route of 38b. Conditions and reagents: (a) Ac2O and NaOAc; (b) TMSN3, BF3OEt2, and DCM; (c) MeONa and MeOH rt overnight; (d) BnBr, NaH, and DMF overnight; (e) […]
(§14) Preparation of 46b and 47b
(§15) Compounds 46b (38%) and 47b (45%) were prepared according to the procedure described for compounds 20b and 21b, respectively.
(§16) Compound 48b (45%) was prepared according to the procedure described for compound […]
as §8
(§17) Cells seeded in 96-well plates were incubated in a 5% CO2 atmosphere in 100 µL of complete medium at 37 ℃ for 24 h. […]
(§18) MTT (5 mg/mL, 20 µL) was added and incubated for 3 h. […] The absorbance was measured at 570 nm using a Bio-Rad 680 microplate reader. The IC50 values were calculated using GraphPad Prism software. […]
(§19) For cytotoxicity assays using the GLUT1 inhibitor 4,6-O-ethylidene-α-D-glucose (EDG), phloretin and the OCT2 inhibitor Ctd., a similar procedure as described above was followed except that MCF-7 cells (3500 cells/well) were seeded on a 96 well plate in 100 µL of RPMI and incubated for 24 h at 37 °C. […] The cytotoxicity profiles of the compounds were evaluated using the MTT assay. […]

Data set [12] concerns 3T3. Kind of data set: Viability of normal cells 3T3, 48 h incubation assay. The data set is classed as cell-based. As for the experimental part:
as §12, §13, §14, §15, §16, §8, §17, §18, §19

The nature of data set [13]: Stability in RPMI 1640. It is filed as physicochemical. The source says: (§20) One of the advantages of inert Pt(IV) prodrugs is their enhanced stability in RPMI 1640 and whole human blood.
Data set [14] can be described thus: Stability in whole human blood. The data set is classed as in vitro ADME.
Source text: as §20

Consider `CC(=O)[O][Pt]([NH2])([Cl])([Cl])([NH]C1CCCCC1)[O]C(C)=O` [5a, satraplatin, reference compound], for which the IC50 (as a rule, the concentration that inhibits the measured activity by half) in data set [1] is 3.1 ± 0.89 µM; in data set [2], 8.01 ± 0.56 µM; in data set [3] it was 5.23 ± 1.77 µM; in data set [4], 16.8 ± 1.56 µM; in data set [5] it was 6.7 ± 1.89 µM; in data set [6], 2.17 ± 1.68 µM. In data set [7], this compound registered an IC50 of 9.96 ± 0.57 µM. In addition, the “RF: Resistance factor = IC50(A549R)/IC50(A549)” value in [7] was determined as 4.59. Moreover, the “effect of EDG, phloretin, Ctd. and EDG + Ctd. on IC50” value in data set [8] is “no great differences”. In addition, the “t1/2 in whole human blood” value in data set [9] is given as 6.3 min.

`O=C(CCC(=O)[O][Pt-2]12([OH])([NH2+][C@@H]3CCCC[C@H]3[NH2+]1)[O]C(=O)C(=O)[O]2)NC[C@H]1OC(O)[C@H](O)[C@@H](O)[C@@H]1O` (some centres unmarked) [6d]: the IC50 in data set [1] is 2.88 ± 0.67 µM; in data set [2], 0.89 ± 1.34 µM; in [3] it was 20 ± 0.79 µM; in data set [4], 66.6 ± 1.45 µM; in data set [5], 4.1 ± 1.46 µM; in [6], 29.9 ± 1.78 µM. The IC50 is 47 ± 1.69 µM in data set [7]; 31.8 µM in data set [10] (MCF-7, GLUT1 inhibitor EDG 75 mM, read-out: IC50 with EDG); 38.7 µM in data set [10] (MCF-7, GLUT1 inhibitor phloretin 100 μM, read-out: IC50 with phloretin); 12.1 µM in data set [11]; above 100 µM in [12]. Besides, the “IC50 with EDG, folds higher than 48 h IC50” value in [10] (MCF-7, EDG) is listed as 36 fold. Also, the “IC50 with mixture of EDG and Ctd., folds higher than 48 h IC50” value in data set [10] (MCF-7, EDG + Ctd.) was determined as 95 fold. The “IC50 with Ctd., folds higher than 48 h IC50” value in data set [10] (MCF-7, OCT2 inhibitor Ctd. 3 mM) was 82 fold. The “IC50 with phloretin, folds higher than 48 h IC50” value in data set [10] (MCF-7, phloretin) was 44 fold. The half-life entry in data set [13] (RPMI 1640) is listed as “up to 170 h”. Moreover, in [13] (RPMI 1640, after 48 h), the remained unchanged is 66%. Also, in [13] (RPMI medium, up to 12 h), the decomposition result was “No significant decomposition”. For the same compound, in data set [14], the “t1/2 in whole human blood” value is on record as around 2.5 h.
